Results on 28 compounds are retold here after ChEMBL document CHEMBL1201862, “PubChem BioAssay data set” (2004).

SMILES strings stand for the structures. The source made the active and inactive calls. For most assays here, no stated cut-off is given here; in the data, actives have a measured EC50 and inactives only a lower limit.

As a reminder, the AC50 is the concentration giving half of the maximal activity seen. As usually defined, the CC50 is the concentration giving 50% cytotoxicity.

One experiment has as its target T1, Protein RecA (Mycobacterium tuberculosis, UniProt P9WHJ3).
T1 sequence (P9WHJ3 whole entry): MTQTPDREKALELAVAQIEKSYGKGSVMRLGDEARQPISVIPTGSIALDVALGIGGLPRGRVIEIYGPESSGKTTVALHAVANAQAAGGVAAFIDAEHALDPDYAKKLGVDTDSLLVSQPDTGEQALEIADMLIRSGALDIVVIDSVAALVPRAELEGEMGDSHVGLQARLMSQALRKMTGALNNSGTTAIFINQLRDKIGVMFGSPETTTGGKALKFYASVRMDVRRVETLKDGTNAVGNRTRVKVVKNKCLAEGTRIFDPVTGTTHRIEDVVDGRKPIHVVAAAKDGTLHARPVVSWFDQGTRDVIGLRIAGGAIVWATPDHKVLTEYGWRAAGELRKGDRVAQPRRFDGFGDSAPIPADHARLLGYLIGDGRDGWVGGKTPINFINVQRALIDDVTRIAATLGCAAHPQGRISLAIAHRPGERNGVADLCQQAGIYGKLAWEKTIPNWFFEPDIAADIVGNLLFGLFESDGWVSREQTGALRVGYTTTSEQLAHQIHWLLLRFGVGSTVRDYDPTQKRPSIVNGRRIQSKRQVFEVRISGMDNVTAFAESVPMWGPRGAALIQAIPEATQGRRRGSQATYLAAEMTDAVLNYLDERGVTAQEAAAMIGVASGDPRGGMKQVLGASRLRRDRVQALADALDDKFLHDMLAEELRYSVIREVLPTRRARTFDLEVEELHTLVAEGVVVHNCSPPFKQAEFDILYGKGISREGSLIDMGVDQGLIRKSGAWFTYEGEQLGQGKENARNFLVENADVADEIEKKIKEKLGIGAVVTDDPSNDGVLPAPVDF
The experiment can be described thus: Fluorescence Cell-Free Homogeneous Dose Retest to Identify Inhibitors of RecA-Intein Splicing Activity. [Related pubchem assays (depositor defined):AID2097, AID2223, AID489010, AID492950]. The format is functional.

Experiment [1] concerns the target T2, Replicative DNA helicase DnaB (Mycobacterium tuberculosis, UniProt P9WMR3).
T2 sequence (P9WMR3 whole entry): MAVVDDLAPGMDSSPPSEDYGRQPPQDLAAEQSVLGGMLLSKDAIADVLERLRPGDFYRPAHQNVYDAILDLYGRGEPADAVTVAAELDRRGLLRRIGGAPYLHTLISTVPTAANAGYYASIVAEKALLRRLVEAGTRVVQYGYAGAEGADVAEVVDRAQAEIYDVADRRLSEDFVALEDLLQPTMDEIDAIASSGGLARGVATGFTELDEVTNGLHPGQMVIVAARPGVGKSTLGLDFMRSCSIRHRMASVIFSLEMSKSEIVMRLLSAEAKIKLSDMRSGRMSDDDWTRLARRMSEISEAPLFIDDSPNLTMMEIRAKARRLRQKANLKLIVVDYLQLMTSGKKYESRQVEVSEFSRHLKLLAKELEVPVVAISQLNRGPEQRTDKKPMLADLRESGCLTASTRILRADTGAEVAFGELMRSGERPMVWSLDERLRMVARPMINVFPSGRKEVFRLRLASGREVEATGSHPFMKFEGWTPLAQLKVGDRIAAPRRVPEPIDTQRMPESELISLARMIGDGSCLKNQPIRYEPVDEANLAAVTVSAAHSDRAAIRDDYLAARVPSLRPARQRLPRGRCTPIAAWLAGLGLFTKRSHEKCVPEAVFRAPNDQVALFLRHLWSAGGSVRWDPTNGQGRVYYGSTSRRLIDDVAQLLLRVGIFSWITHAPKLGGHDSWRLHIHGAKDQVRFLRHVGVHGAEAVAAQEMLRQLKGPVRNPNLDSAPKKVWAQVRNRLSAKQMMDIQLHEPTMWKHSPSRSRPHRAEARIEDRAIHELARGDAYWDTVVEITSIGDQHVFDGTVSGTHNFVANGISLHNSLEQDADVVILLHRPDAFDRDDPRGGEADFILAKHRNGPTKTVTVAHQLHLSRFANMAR
As to the kind of experiment: DnaB intein splicing inhibitors, dose response, biochemical, cell-free fluorescence (AID 449749). The class given is functional.

A further experiment relates to H9c2. As to the kind of experiment: cells. To be noted: Rattus norvegicus, H9c2, Myocardium. The format is functional, cell-based.
In another experiment the target is Paired box protein Pax-8 (Homo sapiens, UniProt Q06710). As to the kind of experiment: PAX8 transcriptional activity inhibition in RMG-I – RMG-I cells, luciferase, cherry-pick, dose response (AID 687027).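 Further: luciferase reporter driven by Pax8 target thyroperoxidase promoter measured by SteadyGlo luminescence.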 The format is functional, cell-based.
Sequence of Paired box protein Pax-8 (Q06710 whole entry): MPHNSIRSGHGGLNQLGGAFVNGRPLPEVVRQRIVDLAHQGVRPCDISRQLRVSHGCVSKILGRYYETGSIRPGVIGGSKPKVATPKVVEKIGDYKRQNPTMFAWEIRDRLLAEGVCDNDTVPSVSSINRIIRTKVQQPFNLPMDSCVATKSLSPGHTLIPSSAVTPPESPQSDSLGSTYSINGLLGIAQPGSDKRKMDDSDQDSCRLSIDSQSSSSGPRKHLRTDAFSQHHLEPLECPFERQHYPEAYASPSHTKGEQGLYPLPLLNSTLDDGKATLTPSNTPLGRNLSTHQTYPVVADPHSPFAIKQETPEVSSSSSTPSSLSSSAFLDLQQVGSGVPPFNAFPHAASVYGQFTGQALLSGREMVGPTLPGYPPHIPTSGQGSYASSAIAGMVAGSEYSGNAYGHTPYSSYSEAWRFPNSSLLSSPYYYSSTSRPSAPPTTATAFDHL
A short description of experiment [2]: alpha-synuclein stem-loop luciferase translation blockers – H4 neuroglioma cells, luminescence, confirmation (AID 1988). The format is functional, cell-based.
The nature of experiment [3]: luciferase reporter signal suppression in cells – H4 neuroglioma cells, luminescence, dose response (AID 1990). The format is functional, cell-based. (In general: A reporter such as luciferase makes a cellular process visible.)
Experiment [4] can be described thus: Luminescence Cell-Based Dose Response HTS to Identify Inhibitors of 5'UTR Stem-Loop Driven Prion Protein mRNA Translation in H4 Neuroglioblastoma Cells. [Related pubchem assays: 1827 (Project Summary), 1813 (Primary HTS)]. The format is functional.
Experiment [5] has as its target T3, Heat shock factor protein 1 (Mus musculus, UniProt P38532).
T3 sequence (P38532 whole entry): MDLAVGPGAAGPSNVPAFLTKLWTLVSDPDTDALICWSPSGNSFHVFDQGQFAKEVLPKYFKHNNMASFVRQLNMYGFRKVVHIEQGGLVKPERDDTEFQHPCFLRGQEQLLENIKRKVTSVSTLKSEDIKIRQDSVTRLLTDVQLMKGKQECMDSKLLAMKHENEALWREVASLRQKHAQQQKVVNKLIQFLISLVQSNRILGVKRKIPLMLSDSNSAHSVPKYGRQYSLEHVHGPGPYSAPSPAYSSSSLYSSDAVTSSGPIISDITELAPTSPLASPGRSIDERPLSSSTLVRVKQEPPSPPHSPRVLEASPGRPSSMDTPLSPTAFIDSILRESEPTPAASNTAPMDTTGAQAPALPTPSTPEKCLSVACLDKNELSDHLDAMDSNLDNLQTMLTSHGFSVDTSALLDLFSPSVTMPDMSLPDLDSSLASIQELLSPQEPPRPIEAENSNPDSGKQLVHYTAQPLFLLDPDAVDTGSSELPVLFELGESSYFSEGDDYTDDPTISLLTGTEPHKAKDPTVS
As to the kind of experiment: enhancement of HSF1-driven luciferase signal – cell-based, NIH3T3, luminescence, dose retest, confirmation (AID 435004).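 Further: stress induced by proteasome inhibitor MG132 added 30 min after compound; luciferase reporter driven by HSF1 response element in NIH3T3 cells; actives raise luminescence as potentiators of the MG132 stress response.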 The format is functional.

Experiment [6] can be described thus: viability of uninfected HEp-2 cells – cell-based, HTS, cytotoxicity control for RSV inhibitor project, dose response (AID 2410). The conditions noted are these: human respiratory syncytial virus. The format is functional.
Experiment [7] concerns the target T4, Corticotropin-releasing factor receptor 2/Corticotropin-releasing factor-binding protein (Homo sapiens, UniProt P24387+Q13324).
T4 sequence (Q13324 whole entry): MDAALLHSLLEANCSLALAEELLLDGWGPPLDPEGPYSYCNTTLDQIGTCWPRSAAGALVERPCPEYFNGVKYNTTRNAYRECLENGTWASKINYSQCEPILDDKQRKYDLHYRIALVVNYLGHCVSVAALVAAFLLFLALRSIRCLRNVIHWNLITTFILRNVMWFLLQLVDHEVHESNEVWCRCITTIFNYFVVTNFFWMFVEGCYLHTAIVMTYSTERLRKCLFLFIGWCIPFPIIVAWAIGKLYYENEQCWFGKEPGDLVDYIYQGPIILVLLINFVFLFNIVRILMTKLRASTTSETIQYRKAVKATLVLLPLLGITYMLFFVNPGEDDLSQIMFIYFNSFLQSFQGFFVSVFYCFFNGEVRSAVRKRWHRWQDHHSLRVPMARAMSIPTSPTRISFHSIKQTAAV
T4 sequence (P24387 whole entry): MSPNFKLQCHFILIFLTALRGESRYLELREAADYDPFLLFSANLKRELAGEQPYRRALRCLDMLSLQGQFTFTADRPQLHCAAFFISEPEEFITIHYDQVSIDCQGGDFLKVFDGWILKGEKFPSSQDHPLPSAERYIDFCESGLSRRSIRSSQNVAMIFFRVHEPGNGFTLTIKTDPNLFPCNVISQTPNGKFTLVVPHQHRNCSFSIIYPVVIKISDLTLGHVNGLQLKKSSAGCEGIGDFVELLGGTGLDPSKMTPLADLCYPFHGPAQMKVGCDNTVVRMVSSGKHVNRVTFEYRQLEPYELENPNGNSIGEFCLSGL
As to the kind of experiment: Dose Response confirmation of uHTS hits for small molecule antagonists of the CRF-binding protein and CRF-R2 receptor complex. The format is functional. The conditions noted are these: read-out: IC50_Mean.

Experiment [8] deals with T4, Corticotropin-releasing factor receptor 2/Corticotropin-releasing factor-binding protein. The experiment can be described thus: activators of CRF receptor 2 with binding protein – uHTS hits, confirmation (AID 602473). The conditions noted are these: read-out: EC50_Mean. The class given is functional.

With `Cc1ccc(/C=C2\SC(N3CCN(C(c4ccccc4)c4ccccc4)CC3)=NC2=O)o1`, at Protein RecA, the EC50 is 49.1 µM (active). In experiment [1], the AC50 was > 380 µM (inactive).
`C[C@@H]1CN([C@@H](C)CO)C(=O)c2cc(NC(=O)Nc3ccccc3)ccc2O[C@H]1CN(C)C(=O)Nc1cccc2ccccc12`: the IC50 in the experiment with H9c2 is 13.9 µM (active).
Take `COc1ccccc1C1C(C#N)=C(N)Oc2c1c(-c1ccccc1)nn2-c1ccccc1` (configuration not stated): on Protein RecA, the EC50 was 4.49 µM (active). Besides, the AC50 in experiment [1] was 9.85 µM (active).
In the case of `Cn1nnnc1Sc1ncnc2scc(-c3ccccc3Cl)c12`, the AC50 at Paired box protein Pax-8 is 2.42 µM (active).
Consider `COC(=O)Cc1c(C)[nH]n(-c2cc(Cl)cc(Cl)c2)c1=O`, for which, on Protein RecA, the EC50 was 16.9 µM (active). The AC50 in experiment [1] is 11 µM (active).
Regarding `CCOCCn1ccc2c(OCC(=O)Nc3cc(OC)ccc3OC)cccc2c1=O`, the IC50 in the experiment on H9c2 is > 79 µM (inactive).
Consider `COc1ccc(OC)c(Nc2nc(N)c([N+](=O)[O-])c(N3CCOCC3)n2)c1`, for which the IC50 in the experiment with H9c2 was 17.7 µM (active).
Regarding `NS(=O)(=O)c1ccc(CCNC(=O)c2ccc([N+](=O)[O-])cc2[N+](=O)[O-])cc1`, the EC50 in experiment [2], in experiment [3] and in experiment [4] was > 120 µM (not active) each time.
On to `O=C1NCCCC2c3c(cc(Br)c(O)c3Br)OC12N1CCCCC1` (configuration not stated), for which, at Protein RecA, the EC50 is 5.46 µM (active). For the same compound, the AC50 in experiment [1] is 32.1 µM (active).
On to `Cn1c(C(=O)NCCOc2ccccc2Cl)cc(=O)n(C)c1=O`, for which the EC50 in [2], in [3] and in experiment [4] was > 120 µM (not active) in each case.
On to `COc1ccc(/C=N/NC(=O)c2cc(-c3ccc4c(c3)OCO4)[nH]n2)cc1OC`, for which the IC50 with H9c2 was > 79 µM (inactive).
Still for that read-out and setting: under `CCN(CC)S(=O)(=O)c1ccc(N2CCOCC2)c(NC(=O)c2cc(-c3ccccn3)nc3ccccc23)c1` stands > 79 µM (inactive).
As to `COc1cccc(/C=C2/NC(=O)NC2=O)c1OCC(=O)Nc1ccccc1`, the EC50 in [2], in experiment [3] and in experiment [4] was > 120 µM (not active) throughout.
Take `N=c1c(S(=O)(=O)c2ccc(Br)cc2)cc2c(=O)n3ccccc3nc2n1C1CCCC1`: the EC50 in experiment [5] was > 260 µM (inactive).
On to `COC(=O)c1ccc(Cn2c(C)c(C(=O)NCc3cccs3)sc2=O)o1`, for which the IC50 in the experiment with H9c2 was 12.1 µM (active).
Take `COc1ccc(OC)c(C2C(C#N)=C(N)Oc3c2c(C)nn3-c2ccc(C)cc2)c1` (configuration not stated): at Protein RecA, the EC50 is 4.91 µM (active). The AC50 in [1] is > 380 µM (inactive).
Take `COC(=O)[C@@H](NC(=O)NC1CCCc2ccccc21)C(C)C` (some centres not stated): the EC50 in experiment [5] is > 260 µM (inactive).
With `COc1ccc(C(=O)COc2ccccc2C(N)=O)cc1`, the IC50 in the experiment on H9c2 was > 79 µM (inactive).
For `CCCN(CC(=O)Nc1ccccc1C)C(=O)Cc1nnc(O)c2ccccc12`, the IC50 in the experiment on H9c2 was > 79 µM (inactive).
As to `COC(=O)c1[nH]c2ccc(C)cc2c1NC(=O)C1=COCCO1`, the EC50 in [2], in experiment [3] and in experiment [4] was > 120 µM (not active) each time.
As to `CC(C)(C)OC(=O)N1CCC[C@H]1c1nnc(SCC(=O)Nc2ccc(Br)cc2)o1`, in the experiment on H9c2, the IC50 was > 79 µM (inactive).
As to `Cc1ccc2nc(-c3ccc(NC(=O)CCS(=O)(=O)c4ccccc4)cc3)sc2c1`, the EC50 in experiment [2] was 6.26 µM (active); in [4], 6.83 µM (active). For the same compound, the half-maximal cytotoxic concentration (CC50) in experiment [6] is 37.3 µM (active).
As to `CCCc1n[nH]c2c1C1(C(=O)N(Cc3ccccc3)c3ccccc31)C(C(=O)OC)=C(N)O2` (configuration not stated), in experiment [5], the EC50 was > 260 µM (inactive).
The same measure, in the same setting: under `CCc1nnc(NC(=O)C(NC(=O)c2ccccc2Cl)C(C)C)s1` (configuration not stated) stands > 260 µM (inactive).
On to `Fc1ccc(Nc2nc(Oc3ccccc3F)nc(N3CCCC3)n2)cc1`, for which the EC50 at Protein RecA is 0.946 µM (active). Further, the AC50 in experiment [1] was 3.2 µM (active).
Take `COc1cccc(NN=C2C(=O)NC(=S)NC2=O)c1`: in [5], the EC50 is 9.18 µM (active).
Consider `Cc1c(O)c(CN2CCCCC2)cc2c1oc(=O)c1ccccc12`, for which the results for the IC50 (in [7]; with H9c2) were > 47.1 µM (inactive) and 6.18 µM (active), respectively. Further, in [8], the EC50 was > 53 µM (inactive).
Take `COc1ccccc1CN1CCSCC1`: the EC50 on Protein RecA is 5.08 µM (active). Further, the AC50 in experiment [1] was 13.2 µM (active).
